# Reference: patent US20180161338A1, “RETOSIBAN FOR THE TREATMENT OF PRE-TERM LABOUR” (priority 2014, published 2018)
# Bridge positions count the residues as written; N and C are the ends. Square brackets hold non-standard residues; d marks the D form. Peptide text beside a SMILES is read from it. Orn = NCCC[C@H](N)C(=O)O; Mpa = O=C(O)CCS
# Assays:
# [1] = system: women pregnant with twins; settings: prophylactic administration; cited from earlier work
# [2] = system: pre-term labour in twin pregnancies; settings: isolated reports, not placebo controlled; cited from earlier work
# Human myometrial strips = experiment: Maximal contractile responses to KCl and oxytocin of myometrial strips cultured under low or high stretch; format: cell-based; settings: for median fold change with retosiban, maximal response to KCl / median fold change with retosiban, maximal response to oxytocin: retosiban versus vehicle
# Protocol: Human myometrial strips (obtained from non-labouring patients undergoing routine elective caesarean section at term) were cultured in medium (phenol red free DMEM supplemented with 10% charcoal stripped foetal calf serum, 2 mM L-glutamine and antibiotics) in an incubator (37° C., humidified 5% CO2) under conditions of low stretch (0.6 g mass) or high stretch (2.4 g mass). Half of the strips in both the low and high stretch groups were incubated with […] retosiban (diluted in DMSO). The remaining strips (paired samples from the same patient) were incubated DMSO.
# After 20-24 hours incubation, myometrial contractility of the strips was studied as described previously (J Physiol 2012; 590(Pt9): 2081-2093). Briefly, tension was initially set at 2 g for all strips. Strips were washed with fresh Krebs after 15 and 30 min and the tension reset to 2 g. After a further hour of washes (every 15 min), the issue was treated with 50 mM KCl (50 mM, 5-7 min). This was washed, the tissue allowed to recover and then a cumulative concentration response curve to oxytocin (up to 100 nM) was obtained. Maximal responses to KCl and oxytocin were normalized to strip wet weight. The mean normalized responses of duplicate strips were calculated for the four different groups (low stretch with retosiban, low stretch with vehicle, high stretch with retosiban, high stretch with vehicle). Effects were expressed as fold change i.e. the ratio of normalized responses in the experimental and control conditions from different strips obtained from the same person. pEC50 values were calculated using analysis of the area under the curve for each concentration of oxytocin.
# Since the data were expressed as fold changes, all ratios were log transformed and normal distribution following log transformation was assessed using the Sharpiro-Wilk test. The null hypothesis was that there was no change in the mean normalized responses with a given intervention. […] Continuous associations were assessed using linear regression of log transformed fold changes. For the analysis of pEC50 Student's paired t-test was used.
# [3] = system: pre-term labour in singleton pregnancies; settings: cited from earlier work
# [4] = system: asymptomatic women with a short cervix pregnant with a single foetus; settings: daily administration; cited from earlier work
smiles,measurement,setting,value
CCCCCC(=O)O[C@]1(C(C)=O)CC[C@H]2[C@@H]3CCC4=CC(=O)CC[C@]4(C)[C@H]3CC[C@@]21C [17-α hydroxyprogesterone caproate],reduction in the frequency of pre-term birth,[1],no reduction
CCOc1ccc(C[C@H]2NC(=O)CCSSC[C@@H](C(=O)N3CCC[C@H]3C(=O)N[C@@H](CCCN)C(=O)NCC(N)=O)NC(=O)[C@H](CC(N)=O)NC(=O)[C@H]([C@@H](C)O)NC(=O)[C@H]([C@@H](C)CC)NC2=O)cc1 [atosiban] ([Mpa][dY](Et)ITNCP[Orn]G-NH2; disulfide 1-6),treatment of pre-term labour in twin pregnancies,[2],used successfully
"CC[C@H](C)[C@@H]1C(=O)N[C@H](C2Cc3ccccc3C2)C(=O)N1[C@@H](C(=O)N1CCOCC1)c1coc(C)n1 [retosiban, (3R,6R)-3-(2,3-dihydro-1H-inden-2-yl)-1-[(1R)-1-(2-methyl-1,3-oxazol-4-yl)-2-(morpholin-4-yl}-2-oxoethyl]-6-[(1S)-1-methylpropyl]-2,5-piperazinedione]","median fold change with retosiban, maximal response to KCl","Human myometrial strips; high stretch (2.4 g), n=12",0.74
same,"median fold change with retosiban, maximal response to oxytocin","Human myometrial strips; high stretch (2.4 g), n=12",0.71
same,"median fold change with retosiban, maximal response to KCl","Human myometrial strips; low stretch (0.6 g), n=12",1.00
same,"median fold change with retosiban, maximal response to oxytocin","Human myometrial strips; low stretch (0.6 g), n=12",0.97
same,relationship between the effect of stretch and the effect of retosiban on responses to KCl and oxytocin,"Human myometrial strips; per patient, FIG. 3",the greater was the reduction in response induced by retosiban
same,"fold change with stretch (high stretch compared with low stretch), maximal response to KCl","Human myometrial strips; strips incubated with 1 mM retosiban 20-24 h, retosiban removed, 50 mM KCl, n=12",1.14
same,"fold change with stretch (high stretch compared with low stretch), maximal response to oxytocin","Human myometrial strips; strips incubated with 1 mM retosiban 20-24 h, retosiban removed, oxytocin up to 100 nM, n=12",1.14
same,increase in days to delivery relative to placebo (mean),[3]; phase II clinical study,8.2 days
same,response rate or percentage of women achieving uterine quiescence,"[3]; ≤4 contractions/h with no change in cervical dilation >1 cm at 5-6 h, depending upon route of administration/dose",50-57%
"CC(=O)[C@H]1CC[C@H]2[C@@H]3CCC4=CC(=O)CC[C@]4(C)[C@H]3CC[C@]12C [vaginal progesterone, progesterone]",reduction of the frequency of birth before 34 weeks of gestation,[4],more than 40%
